Measurements from patent US20250186489A1, “REPROGRAMMING OF CELLS TO TYPE 1 CONVENTIONAL DENDRITIC CELLS OR ANTIGEN-PRESENTING CELLS” (Asgard Therapeutics AB, priority 2021, published 2025).

Columns and labels:
[1] = test system: human embryonic fibroblasts (HEF); experiment: cDC1 reprogramming efficiency of human embryonic fibroblasts, flow cytometry for CD45+HLA-DR+ cells at day 9; type: cell-based; details: for effect on cDC1 reprogramming efficiency when co-expressed with PU.1, IRF8 and BATF3: HEF co-transduced with TetO-PIB, M2rtTA and the individual factor
Experimental: HEFs, HDFs and Clec9a-tdTomato MEFs were seeded at a density of 40,000 cells per well and MSCs at a density of 50,000 cells per well on 0.1% gelatin coated 6-well plates. On the following day, cells were incubated overnight with either a ratio of 1:1 TetO-PIB and M2rtTA, SFFV-PIB-GFP or SFFV-GFP lentiviral particles in media supplemented with 8 μg/ml polybrene. Cells were transduced overnight twice in consecutive days and media replaced in between. After the second transduction, media was replaced by normal growth media (day 0). When using TetO-PIB, media was supplemented with Dox (1 μg/ml). Media was changed every 2-3 days for the duration of cultures. When stated, media was supplemented with LPS (100 ng/ml, Enzo), Poly I:C (25 μg/ml, InvivoGen) and R848 (3 μg/ml, InvivoGen) overnight. Cytokines were added at day 2 and kept for the duration of cultures; For reprogramming in xeno-free conditions, MSCs were cultured in X-Vivo 15 (Lonza) after transduction and media changed every 2-3 days for the duration of cultures.
For the analysis of surface marker expression, human and mouse cells were dissociated and incubated with antibodies diluted in PBS 5% FBS at 4° C. for 30 minutes in the presence of mouse or rat serum (1/100, GeneTex), for human and mouse cells respectively, to block unspecific binding. Cells were washed and resuspended in PBS 5% FBS and analyzed in BD FACSCanto II or BD LSRFortessa flow cytometers (BD Biosciences), unless stated otherwise. DAPI was used for dead cell exclusion. Flow cytometry data were analyzed using FlowJo software (FLOWJO, LLC, version 10.6.1). All flow cytometry analyses were performed in live single cell gates.
Coding regions of ID2, TXNIP, ZFP36, PLEK, SUB1, JUNB, CREM, KLF4, MXD1, LITAF, IRF7, FOS, NMI, TFEC, SP110, IRF5, STAT2, BATF, ZNF267, IRF1, RELB and BATF2 were individually cloned in the pFUW-TetO plasmid. […] Reprogramming efficiency was evaluated by flow cytometry in HEFs 9 days after transcription factor overexpression.
17 human hematopoietic cytokines including inflammatory mediators (Table 3) were individually added to the culture media 2 days after PIB induction in HEFs, and reprogramming efficiency was measured at day 9. Changes in reprogramming efficiency were analysed using both single cytokines and combinations of two or three cytokines.
The impact on reprogramming efficiency after a combination of cytokine treatment and SFFV-driven PIB induction was evaluated. The scPred system was used for integration with “natural” DCs. See previous Examples for experimental details.

[2] = test system: Clec9a-tdTomato mouse embryonic fibroblasts (MEFs); experiment: Replacement of PU.1 by homologs in cDC1 reprogramming of Clec9a-tdTomato MEFs; type: cell-based; details: for tdTomato^+ cells (Clec9a reporter activation): factor in combination with IRF8 and BATF3
Experimental: Coding regions of SPIB and SPIC were individually cloned in the pFUW-TetO plasmid. Lentiviral particles encoding each individual transcription factor or the reverse tetracycline transactivator M2rtTA under the control of constitutively active human ubiquitin C promoter (pFUW-UbC-M2rtTA) were used for co-transduction (Rosa et al. 2018). Reprogramming efficiency was evaluated by flow cytometry in Clec9a-tdTomato mouse embryonic fibroblasts (MEFs) 9 days after transcription factor overexpression.

[3] = HEF with Dox-inducible PIB, individual cytokine
[4] = HEF with SFFV-PIB in the presence of anti-inflammatory cytokine

With GM-CSF: cytokine the “impact on reprogramming efficiency” value [1, 3] was “did not impact reprogramming efficiency”.

For IL-1β: cytokine, the “fold increase in reprogramming efficiency versus condition without cytokines” value ([1]; HEF with Dox-inducible PIB) was 3 fold.

With IL-6: cytokine the “fold increase in reprogramming efficiency versus condition without cytokines” value ([1]; HEF with Dox-inducible PIB) was 2.5 fold.

“SPIB: ETS-domain transcription factor, PU.1 homolog, SEQ ID NO: 23” was tested, and the “reporter activation by the factor alone” value [2] was “not able to activate the DC-specific reporter”, the “tdTomato^+ cells (Clec9a reporter activation)” value [2] was “about 8.14±1.16%” and the “tdTomato^+ cells co-expressing CD45 and MHC-II” value ([2]; factor in combination with IRF8 and BATF3, gated in tdTomato^+) was 33.63±3.76%. For the same molecule, the “ability to replace PU.1 in cDC1 reprogramming” value ([2]; with IRF8 and BATF3) was “could replace PU.1” and the “fold increase in tdTomato^+ cells co-expressing CD45 and MHC-II in comparison to PU.1” value ([2]; with IRF8 and BATF3) was 2 fold.

With “SPIC: ETS-domain transcription factor, PU.1 homolog, SEQ ID NO: 25” the “reporter activation by the factor alone” value [2] was “not able to activate the DC-specific reporter”, the “tdTomato^+ cells (Clec9a reporter activation)” value [2] was 1.46±0.73% and the “ability to replace PU.1 in cDC1 reprogramming” value ([2]; with IRF8 and BATF3) was “could replace PU.1”.

With TGF-β the “fold reduction of reprogramming efficiency” value [1, 4] was 2 fold and the “impact on CD40 expression in hiDCs” value [1, 4] was “did not impact CD40 expression”.

TNF-α was tested, and the “fold increase in reprogramming efficiency versus condition without cytokines” value ([1]; HEF with Dox-inducible PIB) was 3 fold.

B1: FLT3L: cytokine (protein, UniProt P49771 27-235, looked up)
Fms-related tyrosine kinase 3 …: TQDCSFQHSPISSDFAVKIRELSDYLLQDYPVTVASNLQDEELCGGLWRLVLAQRWMERLKTVAGSKMQGLLERVNTEIHFVTKCAFQPPPSCLRFVQTNISRLLQETSEQLVALKPWITRQNFSRCLELQCQPDSSTLPPPWSPRPLEATAPTAPQPPLLLLLLLPVGLLLLAAAWCLHWQRTRRRTPRPGEQVPPVPSPQDLLLVEH
With B1 the “impact on reprogramming efficiency” value [1, 3] was “did not impact reprogramming efficiency”.

B2: IL-4: cytokine (protein, UniProt P05112 25-153, looked up)
Interleukin-4: HKCDITLQEIIKTLNSLTEQKTLCTELTVTDIFAASKNTTEKETFCRAATVLRQFYSHHEKDTRCLGATAQQFHRHKQLIRFLKRLDRNLWGLAGLNSCPVKEANQSTLENFLERLKTIMREKYSKCSS
B2 was tested, and the “impact on reprogramming efficiency” value [1, 3] was “did not impact reprogramming efficiency”.

B3: IL-10: anti-inflammatory cytokine (protein, UniProt P22301 19-178, looked up)
Interleukin-10: SPGQGTQSENSCTHFPGNLPNMLRDLRDAFSRVKTFFQMKDQLDNLLLKESLLEDFKGYLGCQALSEMIQFYLEEVMPQAENQDPDIKAHVNSLGENLKTLRLRLRRCHRFLPCENKSKAVEQVKNAFNKLQEKGIYKAMSEFDIFINYIEAYMTMKIRN
With B3 the “impact on CD40 expression in hiDCs” value [1, 4] was “did not impact CD40 expression” and the “impact on reprogramming efficiency” value [1, 4] was “did not impact reprogramming efficiency”.

B4: IRF7: transcription factor of the interferon regulatory factor family, SEQ ID NO: 21 (protein, listed as Homo sapiens)
chain: MPVPERPAAGPDSPRPGTRRAAPRVLFGEWLLGEISSGCYEGLQWLDEARTCFRVPWKHFARKDLSEADARIFKAWAVARGRWPPSSRGGGPPPEAETAERAGWKTNFRCALRSTRRFVMLRDNSGDPADPHKVYALSRELCWREGPGTDQTEAEAPAAVPPPQGGPPGPFLAHTHAGLQAPGPLPAPAGDKGDLLLQAVQQSCLADHLLTASWGADPVPTKAPGEGQEGLPLTGACAGGPGLPAGELYGWAVETTPSPGPQPAALTTGEAAAPESPHQAEPYLSPSPSACTAVQEPSPGALDVTIMYKGRTVLQKVVGHPSCTFLYGPPDPAVRATDPQQVAFPSPAELPDQKQLRYTEELLRHVAPGLHLELRGPQLWARRMGKCKVYWEVGGPPGSASPSTPACLLPRNCDTPIFDFRVFFQELVEFRARQRRGSPRYTIYLGFGQDLSAGRPKEKSLVLVKLEPWLCRVHLEGTQREGVSSLDSSSLSLCLSSANSLYDDIECFLMELEQPA
modifications: Interferon regulatory factor 7 [Homo sapiens], peptide sequence
In the case of B4, the “effect on cDC1 reprogramming efficiency when co-expressed with PU.1, IRF8 and BATF3” value [1] is reported as “increased cDC1 reprogramming efficiency”.

B5: Oncostatin M: cytokine (protein, UniProt P13725 26-221, looked up)
Oncostatin-M: AAIGSCSKEYRVLLGQLQKQTDLMQDTSRLLDPYIRIQGLDVPKLREHCRERPGAFPSEETLRGLGRRGFLQTLNATLGCVLHRLADLEQRLPKAQDLERSGLNIEDLEKLQMARPNILGLRNNIYCMAQLLDNSDTAEPTKAGRGASQPPTPTPASDAFQRKLEGCRFLHGYHRFMHSVGRVFSKWGESPNRSRR
B5 was tested, and the “fold increase in reprogramming efficiency versus condition without cytokines” value ([1]; HEF with Dox-inducible PIB) was 4 fold.

B6: BATF: nuclear basic leucine zipper transcription factor, SEQ ID NO: 19 (protein, listed as Homo sapiens)
chain: MPHSSDSSDSSFSRSPPPGKQDSSDDVRRVQRREKNRIAAQKSRQRQTQKADTLHLESEDLEKQNAALRKEIKQLTEELKYFTSVLNSHEPLCSVLAASTPSPPEVVYSAHAFHQPHVSSPRFQP
modifications: basic leucine zipper transcriptional factor ATF-like [Homo sapiens], peptide sequence
B6 was tested, and the “effect on cDC1 reprogramming efficiency when co-expressed with PU.1, IRF8 and BATF3” value [1] was “increased cDC1 reprogramming efficiency”.
